Values quoted from earlier work in patent US20070294068A1, “LINE-WALKING RECURSIVE PARTITIONING METHOD FOR EVALUATING MOLECULAR INTERACTIONS AND QUESTIONS RELATING TO TEST OBJECTS” (priority 2006, published 2007).

Test system: 2C9
Conditions: literature reports

**Q.** Which “reported inhibition of 2C9” value does the source give for CCc1ccc(CCOc2ccc(CC3SC(=O)NC3=O)cc2)nc1 (centres unmarked) [pioglitazone] here?
**A.** The value was “weak inhibitor of the *2 allylic variant not the native enzyme”.

**Q.** For Nc1ccc(S(=O)(=O)Nc2ncccn2)cc1 [sulfadiazine], which “reported inhibition of 2C9” value is on record?
**A.** Its value is “only a weak inhibitor”.
